Measured values from patent publication US9750255B2, “Agricultural or horticultural chemical, method of controlling plant diseases, and product for controlling plant diseases” (Kureha Corporation, priority 2013, dated 2017).

What was measured:
Fusarium graminearum = assay: microbe, parasite or virus in culture; type: cell-based
Septoria tritici = assay: In vitro antimicrobial activity test, colony diameter on PDA plate, Septoria tritici; conditions: for Fungal growth inhibition rate (%) Measured value: 25° C., 14 days
Microdochium nivale = assay: In vitro antimicrobial activity test, colony diameter on PDA plate, Microdochium nivale
Penicilium italicum = assay: In vitro antimicrobial activity test, colony diameter on PDA plate, Penicilium italicum
Phaeosphaeria nodorum = assay: In vitro antimicrobial activity test, colony diameter on PDA plate, Phaeosphaeria nodorum
[1] = Fusarium graminearum, 72 h, read-out: Fungal growth inhibition rate (%) Measured value
[2] = Zymoseptoria tritici, 336 h, read-out: Fungal growth inhibition rate (%) Measured value
[3] = Parastagonospora nodorum, 168 h, read-out: Fungal growth inhibition rate (%) Measured value
[4] = Microdochium nivale, 72 h, read-out: Fungal growth inhibition rate (%) Measured value
[5] = 72 h, read-out: Fungal growth inhibition rate (%) Measured value

SMILES: Fc1ccc([C@]2(Cn3cncn3)O[C@H]2c2ccccc2Cl)cc1 (racemic) [Epoxiconazole, epoxiconazole]
- inhibition at 0.01 ppm (Fusarium graminearum; [1]): 22%
- inhibition at 0.04 ppm (Fusarium graminearum; [1]): 27%
- inhibition at 0.16 ppm (Fusarium graminearum; [1]): 39%
- inhibition at 0.63 ppm (Fusarium graminearum; [1]): 57%
- inhibition at 2.5 ppm (Fusarium graminearum; [1]): 88%

SMILES: COC(=O)C1(C)CCC(Cc2ccc(Cl)cc2)C1(O)Cn1cncn1 (stereo not drawn) [Compound (1), methyl 3-(4-chlorobenzyl)-2-hydroxy-1-methyl-2-(1H-1,2,4-triazole-1-ylmethyl)cyclopentane carbonate]
- Fungal growth inhibition rate (%) Measured value (Fusarium graminearum; Test Example 3, compound (1) 1.25 ppm alone, 25° C., 3 days): 93%
- Fungal growth inhibition rate (%) Measured value (Septoria tritici; Test Example 1, compound (1) 0.005 ppm alone): 35%
- Fungal growth inhibition rate (%) Measured value (Septoria tritici; Test Example 2, compound (1) 0.02 ppm alone): 3%
- Fungal growth inhibition rate (%) Measured value (Septoria tritici; Test Example 7, compound (1) 1.25 ppm alone): 70%
- Fungal growth inhibition rate (%) Measured value (Septoria tritici; Test Example 8, compound (1) 1.25 ppm alone): 77%
- Fungal growth inhibition rate (%) Measured value (Microdochium nivale; Test Example 4, compound (1) 0.313 ppm alone, 25° C., 3 days): 26%
- Fungal growth inhibition rate (%) Measured value (Penicilium italicum; Test Example 5, compound (1) 1.25 ppm alone, 25° C., 3 days): 83%
- Fungal growth inhibition rate (%) Measured value (Phaeosphaeria nodorum; Test Example 6, compound (1) 1.25 ppm alone, 25° C., seven days): 89%

SMILES: CC(Cc1ccc(C(C)(C)C)cc1)CN1CCCCC1 (stereo not drawn) [Fenpropidine, fenpropidine]
- Fungal growth inhibition rate (%) Measured value (Septoria tritici; Test Example 8, fenpropidine 0.04 ppm alone): 0%
- Fungal growth inhibition rate (%) Measured value (Septoria tritici; Test Example 8, fenpropidine 0.16 ppm alone): 0%
- Fungal growth inhibition rate (%) Measured value (Septoria tritici; Test Example 8, fenpropidine 0.63 ppm alone): 40%
- Fungal growth inhibition rate (%) Measured value (Septoria tritici; Test Example 8, fenpropidine 2.50 ppm alone): 38%
- Fungal growth inhibition rate (%) Measured value (Septoria tritici; Test Example 8, fenpropidine 10.00 ppm alone): 40%

SMILES: CC(Cc1ccc(C(C)(C)C)cc1)CN1C[C@@H](C)O[C@@H](C)C1 (stereo partly drawn) [Fenpropimorph, fenpropimorph]
- inhibition at 0.04 ppm (Septoria tritici; [2]): 16%
- inhibition at 0.16 ppm (Septoria tritici; [2]): 21%
- inhibition at 0.63 ppm (Septoria tritici; [2]): 23%
- inhibition at 2.5 ppm (Septoria tritici; [2]): 42%
- inhibition at 10 ppm (Septoria tritici; [2]): 45%

SMILES: CC(C)C1CCC(Cc2ccc(Cl)cc2)C1(O)Cn1cncn1 (stereo not drawn) [Ipconazole, ipconazole]
- inhibition at 0.01 ppm (Phaeosphaeria nodorum; [3]): 20%
- inhibition at 0.04 ppm (Phaeosphaeria nodorum; [3]): 31%
- inhibition at 0.16 ppm (Phaeosphaeria nodorum; [3]): 62%
- inhibition at 0.63 ppm (Phaeosphaeria nodorum; [3]): 76%

SMILES: CC1(C)CCC(Cc2ccc(Cl)cc2)C1(O)Cn1cncn1 (stereo not drawn) [Metconazole, metconazole]
- inhibition at 0.01 ppm (Septoria tritici; [2]): 0%
- inhibition at 0.039 ppm (Septoria tritici; [2]): 0%
- inhibition at 0.156 ppm (Septoria tritici; [2]): 11%
- inhibition at 0.625 ppm (Septoria tritici; [2]): 56%
- inhibition at 2.5 ppm (Septoria tritici; [2]): 98%

SMILES: CCCC1COC(Cn2cncn2)(c2ccc(Cl)cc2Cl)O1 (stereo not drawn) [Propiconazole, propiconazole]
- inhibition at 0.156 ppm (Microdochium nivale; [4]): 0%
- inhibition at 0.625 ppm (Microdochium nivale; [4]): 45%
- inhibition at 2.5 ppm (Microdochium nivale; [4]): 76%

SMILES: OC(Cc1ccccc1Cl)(Cn1nc[nH]c1=S)C1(Cl)CC1 (stereo not drawn) [Prothioconazole, prothioconazole]
- inhibition at 0.01 ppm (Septoria tritici; [2]): 0%
- inhibition at 0.039 ppm (Septoria tritici; [2]): 10%
- inhibition at 0.156 ppm (Septoria tritici; [2]): 21%
- inhibition at 0.625 ppm (Septoria tritici; [2]): 51%
- inhibition at 2.5 ppm (Septoria tritici; [2]): 100%

SMILES: CC(C)(C)C(O)(CCc1ccc(Cl)cc1)Cn1cncn1 (stereo not drawn) [Tebuconazole, tebuconazole]
- inhibition at 0.04 ppm (Penicilium italicum; [5]): 3%
- inhibition at 0.16 ppm (Penicilium italicum; [5]): 30%
- inhibition at 0.63 ppm (Penicilium italicum; [5]): 68%
- inhibition at 2.5 ppm (Penicilium italicum; [5]): 87%
- inhibition at 10 ppm (Penicilium italicum; [5]): 100%
